Laboratory results: article PMC11643494, “Structure–Activity Relationship Studies in a Series of 2-Aryloxy-N-(pyrimidin-5-yl)acetamide Inhibitors of SLACK Potassium Channels” (Molecules, 2024)

Target: T1, Mouse WT SLACK (Mus musculus, UniProt Q6ZPR4)
T1 construct: expressed in transfected cells; host or cells: CHO-K1
T1 sequence (Q6ZPR4 1-1224): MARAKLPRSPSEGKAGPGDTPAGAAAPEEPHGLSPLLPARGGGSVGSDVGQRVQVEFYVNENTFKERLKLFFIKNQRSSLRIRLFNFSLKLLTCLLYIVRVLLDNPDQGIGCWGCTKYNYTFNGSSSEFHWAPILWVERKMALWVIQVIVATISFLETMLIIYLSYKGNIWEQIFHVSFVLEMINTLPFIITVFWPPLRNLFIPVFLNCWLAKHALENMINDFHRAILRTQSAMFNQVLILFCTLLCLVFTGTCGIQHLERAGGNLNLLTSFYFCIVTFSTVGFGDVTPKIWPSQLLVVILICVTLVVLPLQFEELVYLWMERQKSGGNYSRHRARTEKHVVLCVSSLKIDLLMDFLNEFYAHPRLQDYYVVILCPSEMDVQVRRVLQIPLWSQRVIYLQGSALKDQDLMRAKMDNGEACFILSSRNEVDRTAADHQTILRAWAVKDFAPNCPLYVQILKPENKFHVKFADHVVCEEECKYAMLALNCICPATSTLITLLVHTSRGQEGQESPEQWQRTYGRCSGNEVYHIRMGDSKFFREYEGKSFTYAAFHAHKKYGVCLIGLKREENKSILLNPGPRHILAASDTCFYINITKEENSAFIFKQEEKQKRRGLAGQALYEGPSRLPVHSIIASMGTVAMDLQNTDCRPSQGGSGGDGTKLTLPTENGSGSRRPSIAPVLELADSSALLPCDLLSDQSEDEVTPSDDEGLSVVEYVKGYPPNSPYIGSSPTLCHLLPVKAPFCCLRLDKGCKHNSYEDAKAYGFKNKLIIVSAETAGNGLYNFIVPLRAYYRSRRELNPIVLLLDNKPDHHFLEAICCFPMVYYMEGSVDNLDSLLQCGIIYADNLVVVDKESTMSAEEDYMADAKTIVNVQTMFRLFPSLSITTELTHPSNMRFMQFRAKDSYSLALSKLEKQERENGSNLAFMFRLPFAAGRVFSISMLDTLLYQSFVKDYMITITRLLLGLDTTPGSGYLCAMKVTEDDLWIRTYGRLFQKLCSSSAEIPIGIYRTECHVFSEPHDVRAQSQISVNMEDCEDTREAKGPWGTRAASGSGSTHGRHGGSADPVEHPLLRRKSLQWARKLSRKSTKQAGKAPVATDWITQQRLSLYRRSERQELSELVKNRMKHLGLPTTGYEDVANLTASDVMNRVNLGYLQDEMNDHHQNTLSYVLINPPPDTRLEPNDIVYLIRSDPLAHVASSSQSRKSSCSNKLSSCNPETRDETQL
Assay: Whole-cell APC in CHO-K1 cells stably expressing mouse WT SLACK
Format: cell-based
Details: for IC50: APC, CHO-K1 cells; for Imax: maximum inhibition at 30 µM standardized to VU0606170 (set at 100%)
Protocol: Finally, we chose to screen the same two compounds versus mouse SLACK and two clinically relevant GOF SLACK mutants in APC assays utilizing CHO-K1 cells stably expressing these targets (Table 7). Screening versus the mouse homolog was deemed important for evaluating the potential of the series to ultimately lead to a useful in vivo tool via further optimization.
Automated patch clamp recording was performed with a SyncroPatch 768 PE system (Nanion, Munich, Germany) as previously described. Whole-cell recordings were performed at room temperature. Cells were harvested by first washing with PBS without Mg^2+ or Ca^2+ (Gibco, Billings, MT, USA) to remove cell culture medium, followed by dissociation with TryPLE (Gibco, Billings, MT, USA). Cells were then resuspended and diluted to 200,000 cells/mL in external solution. External solution contained 105 mM NaCl, 4 mM KCl, 1 mM MgCl2, 5 mM CaCl2, 10 mM HEPES, 40 mM N-Methyl-D-glucamine chloride, titrated to pH 7.4 with NaOH and osmolarity of 300 mOsm/kg; internal solution contained 70 mM NaCl, 70 mM KF, 10 mM KCl, 5 mM EGTA, 5mM HEPES, titrated to a pH 7.2 with KOH and osmolarity of 295 mOsm/kg.
The APC protocol was set as following: Cells were held at […] −80 mV for 100 ms, then a ramp protocol was performed from −100 mV to 80 mV at 0.4 mV/ms, hold the cell at −80 mV for another 100 ms, then steps were performed at −20 mV, 0 mV, +20 mV, +40 mV, and +60 mV for 100 ms of each step. Whole-cell currents were measured at 0 mV and normalized to current after external buffer addition.

CC(C)(Oc1ccc(Cl)cc1)C(=O)Nc1cnc(Oc2c(F)cccc2F)nc1 [Analog 40]
IC50: 320 nM
Imax: 100%

CN(c1ccc(C#N)cc1)c1ncc(NC(=O)C(C)(C)Oc2ccc(Cl)cc2)cn1 [Analog 66]
IC50: 790 nM
Imax: 91%
